The values that follow come from patent US11931338B2, “Nitrilated psilocybin derivatives and methods of using” (Enveric Biosciences Canada Inc., priority 2020, dated 2024).

The target of test [1] is T1, 5-HT1A receptor (Homo sapiens, UniProt P08908).
T1 sequence (P08908 1-422): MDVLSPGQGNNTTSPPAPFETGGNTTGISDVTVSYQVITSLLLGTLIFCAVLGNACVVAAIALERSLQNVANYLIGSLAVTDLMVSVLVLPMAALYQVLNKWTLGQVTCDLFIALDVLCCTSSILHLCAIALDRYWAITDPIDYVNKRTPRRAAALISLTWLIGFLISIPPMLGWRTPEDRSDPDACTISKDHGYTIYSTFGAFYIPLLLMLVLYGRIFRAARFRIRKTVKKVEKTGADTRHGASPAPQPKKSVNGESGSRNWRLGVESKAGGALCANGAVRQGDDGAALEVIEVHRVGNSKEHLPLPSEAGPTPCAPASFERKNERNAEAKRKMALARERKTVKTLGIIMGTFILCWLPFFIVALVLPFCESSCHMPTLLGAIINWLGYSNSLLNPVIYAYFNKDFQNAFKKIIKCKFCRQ
As to the kind of experiment: cAMP-Glo assay in CHO-K1/5-HT1A/Gα15 (+5-HT1A) and CHO-K1/Gα15 (−5-HT1A) cells. To be noted: for luminescence (cAMP) in +5HT1A cell culture at various compound concentrations: 5-HT1A activity: fixed (4 μM) forskolin, +5HT1A cells, FIG. 14B-14D; for relative cAMP levels with increasing compound concentration in +5HT1A and −5HT1A cells: constant (4 μM) forskolin, 5-HT1AR cells vs CHO-K1 cells, n=3, FIG. 14F, 14G. (Cyclic AMP is a second messenger, typically raised through Gs and lowered through Gi signalling.)
Excerpt: CHO-K1/Gα15 (GenScript, M00257) (−5-HT1A) and CHO-K1/5-HT1A/Gα15 (GenScript, M00330) (+5-HT1A) cells lines were used. Briefly, CHO-K1/Gα15 is a control cell line that constitutively expresses Gα15 which is a promiscuous Gq protein. This control cell line lacks any transgene encoding 5-HT1A receptors, but still respond to forskolin; thus, cAMP response to forskolin should be the same regardless of whether or not 5-HT1A agonists are present. Conversely, CHO-K1/5-HT1A/Gα15 cells stably express 5-HT1A receptor in the CHO-K1 host background. […] In contrast, tryptophan is not known to activate 5-HT1A receptors, and was thus used as a negative control. Cells were maintained in complete growth media as recommended by supplier (GenScript) which is constituted as follows: Ham's F12 Nutrient mix (HAM's F12, GIBCO #11765-047) with 10% fetal bovine serum (FBS) (Thermo Scientific #12483020), 200 μg/ml zeocin (Thermo Scientific #R25005) and/or 100 μg/ml hygromycin (Thermo Scientific #10687010). The cells were cultured in a humidified incubator with 37° C. and 5% CO2. Cells maintenance was carried out as recommended by the cell supplier. Briefly, vials with cells were removed from the liquid nitrogen and thawed quickly in 37° C. water bath. Just before the cells were completely thawed the vial's outside was decontaminated by 70% ethanol spray. The cells suspension was then retrieved from the vial and added to warm (37° C.) complete growth media, and centrifuged at 1,000 rpm for 5 minutes. The supernatant was discarded and the cell pellet was then resuspended in another 10 ml of complete growth media, and added to the 10 cm cell culture dish (Greiner Bio-One #664160). The media was changed every third day until the cells were about 90% confluent. The ˜90% confluent cells were then split 10:1 for maintenance or used for experiment. As 5-HT1AR activation inhibits cAMP formation, the agonist activity of test molecules on 5-HT1AR was measured via the reduction in the levels of cAMP produced due to application of 4 μM forskolin. The change in intracellular cAMP levels due to the treatment of novel molecules was measured using cAMP-Glo Assay kit (Promega #V1501). Briefly, +5-HT1A cells were seeded on 1-6 columns and base −5-HT1A cells were seeded on columns 7-12 of the white walled clear bottom 96-well plate (Corning, #3903). Both cells were seeded at the density of 30,000 cells/well in 100 μl complete growth media and cultured 24 hrs in humidified incubator at 37° C. and 5% CO2. On the experiment day, the media of cells was replaced with serum/antibiotic free culture media. Then the cells were treated for 20 minutes with test molecules dissolved in induction medium (serum/antibiotic free culture media containing 4 μM forskolin, 500 μM IBMX (isobutyl-1-methylxanthine, Sigma-Aldrich, Cat. #17018) and 100 μM (RO 20-1724, Sigma-Aldrich, Cat. #B8279)). Forskolin induced cAMP formation whereas IBMX and RO 20-1724 inhibited the degradation of cAMP. PKA was added to the lysate, mixed, and subsequently the substrate of the PKA was added. PKA was activated by cAMP, and the amount of ATP consumed due to PKA phosphorylation directly corresponded to cAMP levels in the lysate. Reduced ATP caused reduced conversion of luciferin to oxyluciferin, conferring diminished luminescence as the result of 5-HT1A activation.

In test [2] the target is T2, 5-HT2A receptor (Homo sapiens, UniProt P28223).
T2 construct: purchased PerkinElmer ES-313-M400UA
Briefly: [3H]ketanserin competition binding assay (Scintillation Proximity Assay) with membranes containing 5-HT2A. The conditions noted are these: fixed (1 nM) [3H]ketanserin; FIG. 13C, 13D. An excerpt: Evaluation of drug binding is an essential step to characterization of all drug-target interactions (Fang 2012, Exp Opin Drug Discov 7:969). The binding affinity of a drug to a target is traditionally viewed as an acceptable surrogate of its in vivo efficacy (Núñez et al., 2012, Drug Disc Today 17: 10). Competition assays, also called displacement or modulation binding assays, are a common approach to measure activity of a ligand at a target receptor (Flanagan 2016, Methods Cell Biol 132: 191). In these assays, standard radioligands acting either as agonists or antagonists are ascribed to specific receptors. […] After incubation, the samples were read on a MicroBeta 2 Microplate Counter (Perkin Elmer). […] Equilibrium binding constants for ketanserin (Kd) were determined from saturation binding curves using the ‘one-site saturation binding analysis’ method of GraphPad PRISM software (Version 9.2.0). […] Ki values were calculated from the competition displacement data using the competitive binding analysis from GraphPad PRISM software. […] Specific binding in counts per minute (cpm) was calculated by subtracting non-specific binding from total binding. Specific binding (pmol/mg) was calculated from pmol of [^3H]ketanserin bound per mg of protein in the assay. The Kd was calculated by fitting the data with the one-site binding model of PRISM software (version 9.2.0).

T2 sequence (P28223 whole entry): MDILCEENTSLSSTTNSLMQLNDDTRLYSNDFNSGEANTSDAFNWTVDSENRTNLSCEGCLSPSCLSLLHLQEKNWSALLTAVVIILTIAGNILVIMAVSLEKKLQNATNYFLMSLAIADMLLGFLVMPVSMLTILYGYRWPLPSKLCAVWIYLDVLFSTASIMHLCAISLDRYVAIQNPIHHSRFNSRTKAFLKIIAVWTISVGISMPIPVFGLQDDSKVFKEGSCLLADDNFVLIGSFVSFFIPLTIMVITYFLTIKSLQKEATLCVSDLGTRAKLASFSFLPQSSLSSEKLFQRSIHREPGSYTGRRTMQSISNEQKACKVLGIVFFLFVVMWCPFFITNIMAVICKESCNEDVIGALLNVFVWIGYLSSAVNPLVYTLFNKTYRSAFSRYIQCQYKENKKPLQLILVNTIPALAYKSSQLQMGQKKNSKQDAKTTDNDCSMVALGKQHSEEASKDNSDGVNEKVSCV

Consider `CN(C)CCc1c[nH]c2ccccc12` [DMT], for which the “luminescence (cAMP) in +5HT1A cell culture at various compound concentrations: 5-HT1A activity” value (“luminescence (cAMP)” for short) in test [1] is on record as 5-HT1A activity.

In the case of `CC(=O)NCCc1c[nH]c2c(C)cc(C#N)cc12` [compound (VIII), N-[2-(5-cyano-7-methyl-1H-indol-3-yl)ethyl]acetamide], in test [1], the “relative cAMP levels with increasing compound concentration in +5HT1A and −5HT1A cells” value is reported as “agonist of 5HT1A”; the “luminescence (cAMP)” value was 5-HT1A activity.

Regarding `CN(C)CCc1c[nH]c2cccc(O)c12` [psilocin], the “competition binding curve against [3H]ketanserin at the 5-HT2A receptor” value in test [2] is listed as “binding”.

Consider `NCCc1c[nH]c2ccc(O)cc12` [serotonin], for which the “relative cAMP levels with increasing compound concentration in +5HT1A and −5HT1A cells” value in test [1] is recorded as “agonist of 5HT1A”.

Consider `N[C@@H](Cc1c[nH]c2ccccc12)C(=O)O` [tryptophan], for which, in test [2], the “competition binding curve against [3H]ketanserin at the 5-HT2A receptor” value is given as “no binding”. In addition, in test [1], the “luminescence (cAMP)” value is “lack of 5-HT1A activity”.
